# Results from patent publication US20230124862A1, “BISMUTH THIOL COMPOUNDS AND COMPOSITIONS AND METHODS OF TREATING MICROBIAL CO-INFECTIONS” (Microbion Corporation, priority 2020, published 2023).
# Values joined by “and” are separate entries in the source; they are usually repeats but may differ in a detail not shown here. Equal entries are not always repeated. Where two headings read alike, the source gives them in different places.
# Columns and labels:
# Enterococcus spp. = experiment: Broth microdilution MIC (Example 11); format: cell-based, E. faecalis, E. faecium
# S. aureus [1] = experiment: Broth microdilution MIC (Example 11); format: cell-based, Staphylococcus aureus; conditions: Staphylococcus aureus, ATCC 29213 / MSSA, S. aureus MMX 101 (ATCC 29213), QC, MSSA
# S. aureus [2] = conditions: S. aureus MMX 101 (ATCC 29213); cited from earlier work
# S. pneumoniae [3] = conditions: S. pneumoniae MMX 6837 (ATCC 49619); cited from earlier work
# [4] = test system: P. aeruginosa and A. baumannii; conditions: P. aeruginosa MMX 103 (ATCC 27853); CLSI QC ranges shown in parenthesis; cited from earlier work
# [5] = test system: Burkholderia cepacia complex; experiment: Checkerboard FIC/FICI assay; format: cell-based, Burkholderia spp.; conditions: for MIC: Meropenem alone, panel with BisEDT, read-out: Drug B MIC
# P. aeruginosa = experiment: Checkerboard FIC/FICI assay; format: cell-based, Pseudomonas aeruginosa; conditions: for FICB / MICB: Meropenem in combination with BisEDT; for MIC: Pseudomonas aeruginosa, Meropenem alone (checkerboard with BisEDT), read-out: Drug B MIC
# Enterobacteriaceae = conditions: E. coli MMX 102 (ATCC 25922); CLSI QC ranges shown in parenthesis; cited from earlier work
# [6] = test system: beta-hemolytic streptococci; experiment: Broth microdilution MIC (Example 11); format: cell-based, S. pyogenes, S. agalactiae
# S. pneumoniae [7] = experiment: Broth microdilution MIC (Example 11); format: cell-based, Streptococcus pneumoniae
# [8] = E. faecalis MMX 8960, VRE, Lev^R Cip^R Ery^R, read-out: MIC
# [9] = E. faecalis MMX 8962, VRE, Lev^R Cip^R Ery^R, read-out: MIC
# [10] = E. faecium MMX 485, VRE vanA, Lev^R Cip^R Ery^R, read-out: MIC
# [11] = E. faecium MMX 752, VRE vanA, Lev^R Cip^R Ery^R, read-out: MIC
# [12] = B. cepacia 1793, Meropenem in combination with BisEDT, by checkerboard
# [13] = P. aeruginosa 6322, one value per panel row C-G
# [14] = P. aeruginosa 7745, by checkerboard
# [15] = P. aeruginosa 8798, by checkerboard
# [16] = P. aeruginosa 9108, by checkerboard
compound,measurement,setting,value
CC[C@H]1OC(=O)[C@H](C)[C@@H](O[C@H]2C[C@@](C)(OC)[C@@H](O)[C@H](C)O2)[C@H](C)[C@@H](O[C@@H]2O[C@H](C)C[C@H](N(C)C)[C@H]2O)[C@](C)(O)C[C@@H](C)C(=O)[C@H](C)[C@@H](O)[C@]1(C)O [Erythromycin],MIC,Enterococcus spp.; [8],> 64 µg/mL
same,MIC,"Enterococcus spp.; E. faecalis MMX 8961, VRE, Lev^R Cip^R Ery^R, read-out: MIC",> 64 µg/mL
same,MIC,Enterococcus spp.; [9],> 64 µg/mL
same,MIC,Enterococcus spp.; [10],> 64 µg/mL
same,MIC,Enterococcus spp.; [11],> 64 µg/mL
same,MIC,S. aureus [1]; read-out: MIC,0.5 µg/mL
same,CLSI QC range of MIC,S. aureus [2],(0.25-1) μg/mL
same,CLSI QC range of MIC,S. pneumoniae [3],(0.03-0.12) μg/mL
C[C@@H](O)[C@H]1C(=O)N2C(C(=O)O)=C(S[C@@H]3CN[C@H](C(=O)N(C)C)C3)[C@H](C)[C@H]12 [Meropenem],MIC,Enterococcus spp.; [8],8 µg/mL
same,MIC,Enterococcus spp.; [9],2 µg/mL
same,MIC,Enterococcus spp.; [10],> 64 µg/mL
same,MIC,Enterococcus spp.; [11],> 64 µg/mL
same,MIC,S. aureus [1]; read-out: MIC,0.06 µg/mL
same,"MIC, CLSI QC range",[4],(0.25-1) μg/mL
same,FICB,"[5]; B. cenocepacia 548, FIC of Meropenem (Drug B) in combination with BisEDT",0.5 and 1
same,MICB,"[5]; B. cenocepacia 548, MIC of Meropenem (Drug B) in combination with BisEDT",2 µg/mL and 4 µg/mL
same,MIC,[5]; B. cenocepacia 548,4 µg/mL
same,FICB,"[5]; B. cenocepacia 813, FIC of Meropenem (Drug B) in combination with BisEDT",0.5 and 1
same,MICB,"[5]; B. cenocepacia 813, MIC of Meropenem (Drug B) in combination with BisEDT",1 µg/mL and 2 µg/mL
same,MIC,[5]; B. cenocepacia 813,2 µg/mL
same,FICB,"[5]; B. cepacia 546, Meropenem in combination with BisEDT, by checkerboard",1 and 2
same,FICB,[5]; [12],2 and 4
same,MICB,[5]; [12],8 µg/mL and 16 µg/mL
same,FICB,"[5]; B. multivorans 1795, FIC of Meropenem (Drug B) in combination with BisEDT",1
same,MICB,"[5]; B. multivorans 1795, MIC of Meropenem (Drug B) in combination with BisEDT",4 µg/mL
same,FICB,P. aeruginosa; [13],1
same,MICB,P. aeruginosa; [13],16 µg/mL
same,FICB,P. aeruginosa; [14],0.25 and 0.5
same,MICB,P. aeruginosa; [14],4 µg/mL and 8 µg/mL
same,FICB,P. aeruginosa; [15],1
same,MICB,P. aeruginosa; [15],32 µg/mL
same,FICB,P. aeruginosa; [16],1
same,MICB,P. aeruginosa; [16],0.001 µg/mL
same,MIC,P. aeruginosa; P. aeruginosa 6977,8 µg/mL
same,MIC,P. aeruginosa; P. aeruginosa 7745,16 µg/mL
same,MIC,P. aeruginosa; P. aeruginosa 8798,32 µg/mL
same,"MIC, CLSI QC range",Enterobacteriaceae,(0.008-0.06) μg/mL
same,CLSI QC range of MIC,S. aureus [2],(0.03-0.12) μg/mL
same,CLSI QC range of MIC,S. pneumoniae [3],(0.06-0.25) μg/mL
Penicillin,MIC,"[6]; S. agalactiae MMX 3741, ERY^R CC^R",0.03 µg/mL
same,MIC,"[6]; S. agalactiae MMX 3743, ERY^R CC^R",0.06 µg/mL
same,MIC,"[6]; S. agalactiae MMX 4077, ERY^R CC^R",0.06 µg/mL
same,MIC,"[6]; S. agalactiae MMX 4079, ERY^R CC^R Pen^R MEM^R",2 µg/mL
same,MIC,"[6]; S. agalactiae MMX 4086, ERY^R CC^R",0.06 µg/mL
same,MIC,"[6]; S. pyogenes MMX 3068, Ery^R",≤0.008 µg/mL
same,MIC,"[6]; S. pyogenes MMX 3820, ERY^R CLI^R",≤0.008 µg/mL
same,MIC,"[6]; S. pyogenes MMX 3919, ERY^R",≤0.008 µg/mL
same,MIC,"[6]; S. pyogenes MMX 3929, ERY^R CC^R",≤0.008 µg/mL
same,MIC,"[6]; S. pyogenes MMX 5091, ERY^R CC^R",≤0.008 µg/mL
same,MIC,"S. pneumoniae [7]; S. pneumoniae MMX 880, Lev^R SXT^R CC^R Ery^R Pen^R",2 µg/mL
same,MIC,"S. pneumoniae [7]; S. pneumoniae MMX 937, Mem^R SXT^R CC^R Ery^R Per^R",4 µg/mL
same,MIC,"S. pneumoniae [7]; S. pneumoniae MMX 3959, CC^R Ery^R",0.12 µg/mL
same,MIC,"S. pneumoniae [7]; S. pneumoniae MMX 5440, Mem^R SXT^R CC^R Ery^R Pen^R",4 µg/mL
same,MIC,"S. pneumoniae [7]; S. pneumoniae MMX 5445, Mem^R SXT^R CC^R Ery^R Pen^R",4 µg/mL
same,MIC,"S. pneumoniae [7]; S. pneumoniae MMX 6837 (ATCC 49619), QC",0.25 µg/mL
same,MIC,"S. pneumoniae [7]; S. pneumoniae MMX 8133, Mem^R SXT^R CC^R Ery^R Pen^R",4 µg/mL
same,CLSI QC range of MIC,S. pneumoniae [3],(0.25-1) μg/mL
"CN[C@H](CC(C)C)C(=O)N[C@H]1C(=O)N[C@@H](CC(N)=O)C(=O)N[C@H]2C(=O)N[C@H]3C(=O)N[C@H](C(=O)N[C@H](C(=O)O)c4cc(O)cc(O)c4-c4cc3ccc4O)[C@H](O)c3ccc(c(Cl)c3)Oc3cc2cc(c3O[C@@H]2O[C@H](CO)[C@@H](O)[C@H](O)[C@H]2O[C@H]2C[C@](C)(N)[C@H](O)[C@H](C)O2)Oc2ccc(cc2Cl)[C@H]1O [vancomycin, reference compound]",MIC,"[6]; Streptococcus pyogenes, S. pyogenes MMX 3820, ERY^R CLI^R",0.5 µg/mL
same,MIC,"[6]; Streptococcus pyogenes, S. pyogenes MMX 3919, ERY^R",0.5 µg/mL
same,MIC,"[6]; Streptococcus pyogenes, S. pyogenes MMX 3929, ERY^R CC^R",0.5 µg/mL
same,MIC,"[6]; Streptococcus pyogenes, S. pyogenes MMX 5091, ERY^R CC^R",0.5 µg/mL
same,MIC,Enterococcus spp.,> 64 µg/mL
same,MIC,"Enterococcus spp.; E. faecalis MMX 8960, VRE, Lev^R Cip^R Ery^R",>64 µg/mL
same,MIC,"Enterococcus spp.; E. faecalis MMX 8962, VRE, Lev^R Cip^R Ery^R",>64 µg/mL
same,MIC,"Enterococcus spp.; E. faecium MMX 485, VRE vanA, Lev^R Cip^R Ery^R",>64 µg/mL
same,MIC,"Enterococcus spp.; E. faecium MMX 752, VRE vanA, Lev^R Cip^R Ery^R",>64 µg/mL
same,MIC,S. aureus [1],1 µg/mL
same,CLSI QC range of MIC,S. aureus [2],(0.5-2) μg/mL
same,CLSI QC range of MIC,S. pneumoniae [3],(0.12-0.5) μg/mL
